Assay results reported in ChEMBL document CHEMBL1138637, “Discovery of potent pyrrolidone-based HIV-1 protease inhibitors with enhanced drug-like properties” (Bioorg Med Chem Lett, 2004).

biological target: T1, Human immunodeficiency virus type 1 protease (Human immunodeficiency virus 1, UniProt Q72874); assay: Potency to inhibit HIV-1 protease

SMILES | Ki [pM]
O=C(NCCN1CCOCC1)c1cccc(C[C@H]2C[C@H](Cc3ccccc3)N(C[C@@H](O)C[C@@H](Cc3ccccc3)C(=O)N[C@@H]3c4ccccc4C[C@H]3O)C2=O)c1 | 150
O=C(NCCOCCO)c1cccc(C[C@H]2C[C@H](Cc3ccccc3)N(C[C@@H](O)C[C@@H](Cc3ccccc3)C(=O)N[C@@H]3c4ccccc4C[C@H]3O)C2=O)c1 | 240
Nc1ccc(CC2C[C@H](Cc3ccccc3)N(C[C@@H](O)C[C@@H](Cc3ccccc3)C(=O)NC3c4ccccc4C[C@H]3O)C2=O)cc1 (stereo not given in full) | 2300
O=C(NC1c2ccccc2C[C@H]1O)[C@H](Cc1ccccc1)C[C@H](O)CN1C(=O)C(Cc2ccncc2)C[C@@H]1Cc1ccccc1 (stereo not given in full) | 310
C=CC[C@H]1C[C@H](Cc2ccccc2)N(C[C@@H](O)C[C@@H](Cc2ccccc2)C(=O)NC2c3ccccc3C[C@H]2O)C1=O (stereo not given in full) | 450
N#CCOc1cccc(C[C@H]2C[C@H](Cc3ccccc3)N(C[C@@H](O)C[C@@H](Cc3ccccc3)C(=O)NC3c4ccccc4C[C@H]3O)C2=O)c1 (stereo not given in full) | 80
CCOC(=O)CNC(=O)Nc1cccc(C[C@H]2C[C@H](Cc3ccccc3)N(C[C@@H](O)C[C@@H](Cc3ccccc3)C(=O)N[C@@H]3c4ccccc4C[C@H]3O)C2=O)c1 | 100
NC(=O)c1cccc(C[C@H]2C[C@H](Cc3ccccc3)N(C[C@@H](O)C[C@@H](Cc3ccc(OCCO)cc3)C(=O)N[C@@H]3c4ccccc4C[C@H]3O)C2=O)c1 | 50
N#Cc1ccc(CC2C[C@H](Cc3ccccc3)N(C[C@@H](O)C[C@@H](Cc3ccccc3)C(=O)NC3c4ccccc4C[C@H]3O)C2=O)cc1 (stereo not given in full) | 340
O=C(NC1c2ccccc2C[C@H]1O)[C@H](Cc1ccccc1)C[C@H](O)CN1C(=O)C(Cc2cccnc2)C[C@@H]1Cc1ccccc1 (single isomer, unassigned; diastereomer 2) | 14000
O=C(NC1c2ccccc2C[C@H]1O)[C@H](Cc1ccccc1)C[C@H](O)CN1C(=O)C(Cc2cccnc2)C[C@@H]1Cc1ccccc1 (stereo in doubt) | 170

Now from value to compound:

Ki [pM] | SMILES
200 | CCNC(=O)Nc1cccc(C[C@H]2C[C@H](Cc3ccccc3)N(C[C@@H](O)C[C@@H](Cc3ccccc3)C(=O)NC3c4ccccc4C[C@H]3O)C2=O)c1 (stereo not given in full)
100 | NC(=O)c1cccc(C[C@H]2C[C@H](Cc3ccccc3)N(C[C@@H](O)C[C@@H](Cc3ccccc3)C(=O)N[C@@H]3c4ccccc4C[C@H]3O)C2=O)c1
90 | NC(=O)Cc1cccc(C[C@H]2C[C@H](Cc3ccccc3)N(C[C@@H](O)C[C@@H](Cc3ccccc3)C(=O)NC3c4ccccc4C[C@H]3O)C2=O)c1 (stereo not given in full)
50 | N#Cc1cccc(CC2C[C@H](Cc3ccccc3)N(C[C@@H](O)C[C@@H](Cc3ccccc3)C(=O)NC3c4ccccc4C[C@H]3O)C2=O)c1 (single isomer, unassigned; diastereomer 1)
420 | COC(=O)c1cccc(CC2C[C@H](Cc3ccccc3)N(C[C@@H](O)C[C@@H](Cc3ccccc3)C(=O)NC3c4ccccc4C[C@H]3O)C2=O)c1 (single isomer, unassigned; diastereomer 1)
50 | O=C(NC1c2ccccc2C[C@H]1O)[C@H](Cc1ccccc1)C[C@H](O)CN1C(=O)C(Cc2cccc(O)c2)C[C@@H]1Cc1ccccc1 (single isomer, unassigned; diastereomer 1)
100 | Nc1cccc(CC2C[C@H](Cc3ccccc3)N(C[C@@H](O)C[C@@H](Cc3ccccc3)C(=O)NC3c4ccccc4C[C@H]3O)C2=O)c1 (single isomer, unassigned; diastereomer 1)

biological target: T1, Human immunodeficiency virus type 1 protease; assay: Concentration required to in inhibit HIV-1 protease by 50%

SMILES | IC50 [pM]
C=CCC1OC[C@H](Cc2ccccc2)N(C[C@H](O)CN(CC2CCCC2)S(=O)(=O)c2ccc(OC)cc2)C1=O (stereo not given in full) | 2000
COc1ccc(S(=O)(=O)N(CC2CCCC2)C[C@@H](O)CN2C(=O)C(Cc3ccccc3)OC[C@@H]2Cc2ccccc2)cc1 (stereo not given in full) | 30000
